Experimental data from article PMC6627486, “Ipomoeassin F Binds Sec61α to Inhibit Protein Translocation” (Journal of the American Chemical Society, 2019).
Like-named read-outs stand apart in the source and are kept apart here.

Experiments:
[1] = test system: WT HEK; test: Alamar Blue viability, WT HEK293; format: cell-based, human; conditions: read-out: cell viability IC50
Description: AlamarBlue Cytotoxicity Assay […]
HCT116 and HEK293T. Viable cells were counted using an automated cell counter (BioRad TC20) before each experiment. Experiments were performed either in quadruplicate or duplicate sets. First 100µ l of HCT116 or HEK293T cells at a density of 25,000 cells/m l was seeded in black wall, clear bottom, 96-well plates (2500 cells/well) (Viewplate-96 Perkin Elmer). HEK293 FRT Trex cells were seeded in complete medium supplemented to 1 μg/ml Doxycycline to induce expression of Sec61a constructs. Cells were then incubated at 37 °C and 5% CO2 for 24 h. The compounds were dissolved in DMSO to make drug stocks (10 mM). The stock solutions were diluted with the complete DMEM or McCoy’s 5A culture media supplemented with DMSO to make a series of gradient fresh working solutions at equal DMSO percentage immediately prior to each test. Subsequently, the cells were treated with 25 μl of the freshly made gradient in a total volume of 125 μl/well for 72 h. After that, the media were supplemented with 10% of AlamarBlue (resazurin) stock solution. The plate was then incubated at 37 °C and 5% CO2 for another 4 h. Emission of each well at 620 nm was detected by a microplate reader (Perkin Elmer EnSpire) at excitation 580 nm. The percentage of viability compared to the negative control (DMSO -treated cells) was determined. […]

[2] = biological target: T1, Sec61α (Homo sapiens, UniProt P61619); test: Live cell-based biotin affinity pulldown in MDA-MB-231 cells; format: binding; conditions: live MDA-MB-231 cells
T1 construct: enabling a biotin analogue of ipomoeassin F to pull down Sec61α from live cells; endogenous in cells; host or cells: MDA-MB-231
Description: Activity Based Protein Profiling
MDA-MB-231 cells were seeded in five groups of 6 cm petri dishes with 3 ml DMEM high glucose culture and incubated at 37 °C and 5% CO2 until 90% confluency. […]
After 1 h incubation at 37 °C […]
and 5% CO2, the cells were harvested by scraping and washed with cold PBS for 3 times. The cells were then lysed in 100 µl of lysis buffer 1 (50 mM Hepes, pH 9.0, 100 mM NaCl, 10% glycerol, 5 mM MgCl2, 1 mM CaCl2, 0.2% NP40, 1x protease inhibitor) using ultrasound sonication. The supernatant of each group was collected after centrifugation at 21,100 g and 4 °C for 10 min, and the protein concentration was quantified with a BCA kit. 10% SDS was then added into protein solution to make a final SDS concentration of 0.4%, and the solution was incubated at 95 °C for 5 min. […]
According to the experimental needs, MDA-MB-231 cells were seeded into 3-7 groups of 15-cm tissue-culture dishes and incubated at 37 °C and 5% CO2 until 90% confluency. […] The supernatant of each group was collected after centrifugation at 4 °C and 21,100 g for 10 min, and the protein concentration was quantified with the BCA kit. […]
rotation. […] The other part was analyzed by Western blotting, in which proteins on the nitrocellulose membrane were visualized by either fluorescently labeled streptavidin or an anti-Sec61α antibody. […]

T1 sequence (P60468 whole entry): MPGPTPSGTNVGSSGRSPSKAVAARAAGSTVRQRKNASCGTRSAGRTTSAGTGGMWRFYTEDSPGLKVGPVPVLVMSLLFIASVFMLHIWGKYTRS
T1 sequence (P60059 whole entry, further chain): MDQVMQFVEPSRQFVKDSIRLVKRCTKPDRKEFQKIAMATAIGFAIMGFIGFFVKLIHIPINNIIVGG
T1 sequence (P61619 whole entry): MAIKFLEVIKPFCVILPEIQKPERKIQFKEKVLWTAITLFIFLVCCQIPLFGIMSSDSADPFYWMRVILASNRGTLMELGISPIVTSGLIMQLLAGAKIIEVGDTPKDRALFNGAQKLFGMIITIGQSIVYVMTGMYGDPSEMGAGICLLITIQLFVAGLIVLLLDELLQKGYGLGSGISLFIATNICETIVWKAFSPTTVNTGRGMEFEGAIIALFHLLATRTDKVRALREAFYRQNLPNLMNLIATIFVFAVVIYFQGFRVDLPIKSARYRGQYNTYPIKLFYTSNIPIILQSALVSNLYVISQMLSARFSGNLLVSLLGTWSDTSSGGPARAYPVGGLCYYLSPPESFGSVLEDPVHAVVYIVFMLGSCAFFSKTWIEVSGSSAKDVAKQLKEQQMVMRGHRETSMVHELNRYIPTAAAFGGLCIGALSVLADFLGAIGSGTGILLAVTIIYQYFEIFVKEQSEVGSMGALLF

## CC(=C\C=C\C(C)=C\[C@H](O)[C@@H](O)C[C@H](C)O)/C=C(C)/C=C/C(=O)O[C@H]1CCCC(=O)O[C@@H]([C@@H](C)C/C(C)=C/[C@@H](C)[C@H](O)C[C@@H](C)O)C/C=C(\C)C[C@@H]1C [mycolactone, reference compound]
[1]; 72 h
  IC50: 23.6 ± 0.6 nM

## C/C=C(\C)C(=O)O[C@@H]1[C@@H](O)[C@@H]2O[C@H]3[C@H](O[C@@H](CCCCC)CCCCCCC(=O)CCC(=O)OC[C@@H](O2)[C@H]1OC(=O)/C=C/c1ccccc1)O[C@H](C)[C@H](OC(C)=O)[C@@H]3O [ipomoeassin F]
[1]; Homo sapiens, HEK293, 72 h
  IC50: 9.6 ± 1 nM
[2]; 10 nM 7 + 50 nM ipomoeassin F, 20 nM 7 + 1 μM 8
  competition with probe 7 in pulldown of ∼40 kDa protein: outcompeted by a 5-fold excess

## C/C=C(\C)C(=O)O[C@H]1[C@H](OC(=O)/C=C/c2ccc(OCc3cn(CCOCCOCCOCCNC(=O)CCCC[C@@H]4SC[C@@H]5NC(=O)N[C@@H]54)nn3)cc2)[C@@H](O)[C@@H]2O[C@H]3[C@H](O[C@@H](CCCCC)CCCCCCC(=O)CCC(=O)OC[C@H]1O2)O[C@H](C)[C@H](OC(C)=O)[C@@H]3O [compound 5]
[2]; 9 at 500 nM
  recovery of ∼40 kDa protein (Sec61α) by biotin probe in streptavidin pulldown: no proteins were selectively enriched
